Data as given in patent US20260042764A1, “COMPOSITIONS AND METHODS FOR INHIBITION OF KRAS” (TheRas, Inc., priority 2022, published 2026).

Key:
GP2d cells (KRAS G12D) = test: Cell-based pERK HTRF assay in GP2d cell (Biological Example 2); conditions: GP2d (KRAS G12D) cells, pERK HTRF
Outline: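 GP2d (KRAS G12D) cells were plated in DMEM/10% FBS and treated the next day for 60 min with compounds. Dosing used 9-point half-log series starting at 1 μM or 100 nM in 0.25% DMSO. Lysates were read by HTRF pERK (d2/Eu cryptate antibodies) after 4–24 h at room temperature, with excitation at 320 nm and emission at 615 nm.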

[1] = target: T1, Avi-KRAS G12R (1-169) GppNHp/RAF1 RBD-3xFLAG (52-151) (Homo sapiens, UniProt P01116, G12R); test: Raf1-KRAS G12R-GppNHP disruption HTRF assay (Biological Example 1); format: binding
T1 construct: Avi-KRAS G12R (1-169)
Outline: (§1)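 Measured with a KRAS/RAF1 HTRF assay at pH 7.5 in 10% DMSO, with two 1 h room-temperature incubations with shaking.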

[2] = target: T2, Avi-KRAS WT (1-169) GppNHp/RAF1 RBD-3xFLAG (52-151) (Homo sapiens, UniProt P01116); test: Raf1-KRAS WT-GppNHP disruption HTRF assay (Biological Example 1); format: binding
T2 construct: Avi-KRAS WT (1-169)
Outline: as §1

SW620 cells (KRAS G12V) = test: Cell-based pERK HTRF assay in SW620 cell (Biological Example 4); conditions: pERK HTRF
Outline: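 This assay measures inhibition of ERK phosphorylation downstream of KRAS G12V in intact SW620 cells. Compounds are applied for 4 h over nine half-log concentrations starting at 1 μM, and pERK is quantified by HTRF.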

[3] = target: T3, Avi-KRAS G12D (1-169) GppNHp/RAF1 RBD-3xFLAG (52-151) (Homo sapiens, UniProt P01116, G12D); test: Raf1-KRAS G12D-GppNHP disruption HTRF assay (Biological Example 1); format: binding
T3 construct: Avi-KRAS G12D (1-169)
Outline: as §1

[4] = target: T4, Avi-KRAS G12V (1-169) GppNHp/RAF1 RBD-3xFLAG (52-151) (Homo sapiens, UniProt P01116, G12V); test: Raf1-KRAS G12V-GppNHP disruption HTRF assay (Biological Example 1); format: binding
T4 construct: Avi-KRAS G12V (1-169)
Outline: as §1

[5] = KRAS G12R, GppNHp-loaded, class symbols
[6] = KRAS WT, GppNHp-loaded, class symbols
[7] = Homo sapiens, SW-620, SW620 (KRAS G12V) cells, class symbols
[8] = KRAS G12D, GppNHp-loaded, class symbols
[9] = KRAS G12V, GppNHp-loaded, class symbols
[10] = KRAS G12R, GppNHp-loaded, Table 11
[11] = KRAS WT, GppNHp-loaded, Table 11
[12] = Homo sapiens, SW-620, SW620 (KRAS G12V) cells
[13] = KRAS G12D, GppNHp-loaded, Table 11
[14] = KRAS G12V, GppNHp-loaded, Table 11

T2 sequence (P01116 1-169 isoform P01116-2): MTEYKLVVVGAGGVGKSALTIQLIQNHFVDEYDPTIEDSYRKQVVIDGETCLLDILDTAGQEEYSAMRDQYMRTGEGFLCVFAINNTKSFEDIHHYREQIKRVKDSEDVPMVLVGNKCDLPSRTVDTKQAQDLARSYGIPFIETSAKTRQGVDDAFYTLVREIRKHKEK
T1 sequence (P01116 1-169 isoform P01116-2 G12R): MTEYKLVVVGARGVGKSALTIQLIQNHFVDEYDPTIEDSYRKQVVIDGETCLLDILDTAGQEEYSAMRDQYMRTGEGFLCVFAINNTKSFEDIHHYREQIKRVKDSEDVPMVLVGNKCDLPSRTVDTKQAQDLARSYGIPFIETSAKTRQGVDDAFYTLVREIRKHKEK
T4 sequence (P01116 1-169 isoform P01116-2 G12V): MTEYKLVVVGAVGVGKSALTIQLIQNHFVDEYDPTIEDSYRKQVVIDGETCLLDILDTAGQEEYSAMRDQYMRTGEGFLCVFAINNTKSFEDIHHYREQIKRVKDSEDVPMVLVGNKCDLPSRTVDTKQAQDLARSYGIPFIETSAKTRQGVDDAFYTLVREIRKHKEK
T3 sequence (P01116 1-169 isoform P01116-2 G12D): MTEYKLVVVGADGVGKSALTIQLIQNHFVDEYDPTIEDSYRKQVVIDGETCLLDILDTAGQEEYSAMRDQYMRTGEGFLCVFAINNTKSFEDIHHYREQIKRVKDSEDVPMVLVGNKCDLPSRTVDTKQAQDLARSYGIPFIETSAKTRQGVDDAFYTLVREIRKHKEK

Compound	IC50 (GP2d cells (KRAS G12D); GP2d, class symbols)	IC50 [1, 5]	IC50 [2, 6]	IC50 (SW620 cells (KRAS G12V); [7])	IC50 [3, 8]	IC50 [4, 9]	IC50 (GP2d cells (KRAS G12D); GP2d)	IC50 [1, 10]	IC50 [2, 11]	IC50 (SW620 cells (KRAS G12V); [12])	IC50 [3, 13]	IC50 [4, 14]	further results
CC(=O)N1C[C@@H]2CCN(c3nc(OC[C@@]45CCCN4C[C@H](F)C5)nc4c(F)c(-c5ccc(F)c6sc(N)c(C#N)c56)c(C(F)(F)F)cc34)[C@@H]2C1 [Compound 211]	–	–	–	–	–	–	< 0.1 µM	1 to 10 µM	0.1 to 1 µM	0.1 to 1 µM	0.1 to 1 µM	1 to 10 µM	–
N#Cc1c(N)sc2c(F)ccc(-c3c(C(F)(F)F)cc4c(N5CC(F)C5)nc(OC[C@@]56CCCN5C[C@H](F)C6)nc4c3F)c12 [Compound 222]	–	–	–	–	–	–	< 0.1 µM	0.1 to 1 µM	0.1 to 1 µM	< 0.1 µM	0.1 to 1 µM	0.1 to 1 µM	–
N#Cc1c(N)sc2c(F)ccc(-c3c(C(F)(F)F)cc4c(N5CCn6nncc6C5)nc(OC[C@@]56CCCN5C[C@H](F)C6)nc4c3F)c12 [Compound 243]	–	–	–	–	–	–	< 0.1 µM	0.1 to 1 µM	0.1 to 1 µM	< 0.1 µM	0.1 to 1 µM	0.1 to 1 µM	–
C[C@]1(O)CCCN(c2nc(OC[C@@]34CCCN3C[C@H](F)C4)nc3c(F)c(-c4ccc(F)c5sc(N)c(C#N)c45)c(C(F)(F)F)cc23)C1 [Compound 241]	–	–	–	–	–	–	< 0.1 µM	0.1 to 1 µM	0.1 to 1 µM	< 0.1 µM	0.1 to 1 µM	0.1 to 1 µM	–
CN(C[C@H](F)CO)c1nc(OC[C@@]23CCCN2C[C@H](F)C3)nc2c(F)c(-c3ccc(F)c4sc(N)c(C#N)c34)c(C(F)(F)F)cc12 [Compound 216]	–	–	–	–	–	–	< 0.1 µM	0.1 to 1 µM	0.1 to 1 µM	< 0.1 µM	0.1 to 1 µM	0.1 to 1 µM	–
CC(=O)N1CCN(c2nc(OC[C@@]34CCCN3C[C@H](F)C4)nc3c(F)c(-c4ccc(F)c5sc(N)c(C#N)c45)c(C(F)(F)F)cc23)C[C@H]1C [Compound 229]	–	–	–	–	–	–	< 0.1 µM	1 to 10 µM	1 to 10 µM	< 0.1 µM	0.1 to 1 µM	1 to 10 µM	–
CCC(=O)N1C[C@@H](N(C)c2nc(OC[C@@]34CCCN3C[C@H](F)C4)nc3c(F)c(-c4ccc(F)c5sc(N)c(C#N)c45)c(C(F)(F)F)cc23)C[C@@H]1C [Compound 435]	–	–	–	–	–	–	< 0.1 µM	–	–	< 0.1 µM	–	–	IC50 ([1]; KRAS G12R-GppNHp/RAF1 RBD HTRF): 0.1 to 1 µM; IC50 ([2]; KRAS WT-GppNHp/RAF1 RBD HTRF): 0.1 to 1 µM; IC50 ([3]; KRAS G12D-GppNHp/RAF1 RBD HTRF): 0.1 to 1 µM; IC50 ([4]; KRAS G12V-GppNHp/RAF1 RBD HTRF): 0.1 to 1 µM
CN(C)C(=O)c1cc2n(n1)CCCN(c1nc(OC[C@@]34CCCN3C[C@H](F)C4)nc3c(F)c(-c4ccc(F)c5sc(N)c(C#N)c45)c(C(F)(F)F)cc13)C2 [Compound 256]	–	–	–	–	–	–	< 0.1 µM	0.1 to 1 µM	0.1 to 1 µM	< 0.1 µM	< 0.1 µM	0.1 to 1 µM	–
N#Cc1c(N)sc2c(F)ccc(-c3c(C(F)(F)F)cc4c(N5CCN6C(=O)OCC6C5)nc(OCC56CCCN5CC(F)C6)nc4c3F)c12 (stereo not drawn) [Compound 431]	–	–	–	–	–	–	–	–	–	–	–	–	IC50 (GP2d cells (KRAS G12D)): < 0.1 µM; IC50 ([1]; KRAS G12R-GppNHp/RAF1 RBD HTRF): 1 to 10 µM; IC50 ([2]; KRAS WT-GppNHp/RAF1 RBD HTRF): 1 to 10 µM; IC50 (SW620 cells (KRAS G12V); SW620 (KRAS G12V) cells): < 0.1 µM; IC50 ([3]; KRAS G12D-GppNHp/RAF1 RBD HTRF): 1 to 10 µM; IC50 ([4]; KRAS G12V-GppNHp/RAF1 RBD HTRF): 1 to 10 µM
N#Cc1c(N)sc2c(F)ccc(-c3c(Cl)cc4c(N5C[C@H]6C[C@@H]5CO6)nc(OC[C@@]56CCCN5C[C@H](F)C6)nc4c3F)c12 [Compound 364]	–	–	–	–	–	–	< 0.1 µM	–	–	< 0.1 µM	–	–	IC50 ([1]; KRAS G12R-GppNHp/RAF1 RBD HTRF): 1 to 10 µM; IC50 ([2]; KRAS WT-GppNHp/RAF1 RBD HTRF): 1 to 10 µM; IC50 ([3]; KRAS G12D-GppNHp/RAF1 RBD HTRF): 0.1 to 1 µM; IC50 ([4]; KRAS G12V-GppNHp/RAF1 RBD HTRF): 1 to 10 µM
CCN(c1nc(OC[C@@]23CCCN2C[C@H](F)C3)nc2c(F)c(-c3ccc(F)c4sc(N)c(C#N)c34)c(C(F)(F)F)cc12)[C@@H]1C[C@@H](C)N(C(=O)OC)C1 (atropisomer, axis not shown) [Compound 526]	–	–	–	–	–	–	< 0.1 µM	–	–	< 0.1 µM	–	–	IC50 ([1]; KRAS G12R-GppNHp/RAF1 RBD HTRF): 0.1 to 1 µM; IC50 ([2]; KRAS WT-GppNHp/RAF1 RBD HTRF): 0.1 to 1 µM; IC50 ([3]; KRAS G12D-GppNHp/RAF1 RBD HTRF): 0.1 to 1 µM; IC50 ([4]; KRAS G12V-GppNHp/RAF1 RBD HTRF): 0.1 to 1 µM

Further lines, with some results ahead:

IC50 (GP2d cells (KRAS G12D); GP2d, class symbols)	IC50 [1, 5]	IC50 [2, 6]	IC50 (SW620 cells (KRAS G12V); [7])	IC50 [3, 8]	IC50 [4, 9]	IC50 (GP2d cells (KRAS G12D); GP2d)	IC50 [1, 10]	IC50 [2, 11]	IC50 (SW620 cells (KRAS G12V); [12])	IC50 [3, 13]	IC50 [4, 14]	Compound	further results
< 0.1 µM	< 0.1 µM	0.1 to 1 µM	< 0.1 µM	< 0.1 µM	< 0.1 µM	–	–	–	–	–	–	CCN(c1nc(OC[C@@]23CCCN2C[C@H](F)C3)nc2c(F)c(-c3ccc(F)c4sc(N)c(C#N)c34)c(C(F)(F)F)cc12)[C@H]1CCN(C(=O)OCC2CC2)C1 (atropisomer, axis not shown) [Compound 620]	–
< 0.1 µM	< 0.1 µM	< 0.1 µM	< 0.1 µM	< 0.1 µM	< 0.1 µM	–	–	–	–	–	–	CCN1C[C@@H]2C[C@H](N(CC)c3nc(OC[C@@]45CCCN4C[C@H](F)C5)nc4c(F)c(-c5ccc(F)c6sc(N)c(C#N)c56)c(C(F)(F)F)cc34)CN2C1=O (atropisomer, axis not shown) [Compound 762]	–
< 0.1 µM	< 0.1 µM	< 0.1 µM	< 0.1 µM	< 0.1 µM	< 0.1 µM	–	–	–	–	–	–	CCN(c1nc(OC[C@@]23CCCN2C[C@H](F)C3)nc2c(F)c(-c3ccc(F)c4sc(N)c(C#N)c34)c(C(F)(F)F)cc12)[C@H]1CCN(C(=O)c2ccsn2)C1 (atropisomer, axis not shown) [Compound 722]	–
< 0.1 µM	< 0.1 µM	< 0.1 µM	< 0.1 µM	< 0.1 µM	< 0.1 µM	–	–	–	–	–	–	CCN(c1nc(OC[C@@]23CCCN2C[C@H](F)C3)nc2c(F)c(-c3ccc(F)c4sc(N)c(C#N)c34)c(C(F)(F)F)cc12)[C@H]1CCN(C(=O)C2C[C@@H]2C)C1 (stereo partly drawn) [Compound 604]	–
< 0.1 µM	< 0.1 µM	< 0.1 µM	< 0.1 µM	< 0.1 µM	< 0.1 µM	–	–	–	–	–	–	CCN(c1nc(OC[C@@]23CCCN2C[C@H](F)C3)nc2c(F)c(-c3ccc(F)c4sc(N)c(C#N)c34)c(C(F)(F)F)cc12)[C@H]1CCN(C(=O)N2CC(OC)C2)[C@@H]1C (atropisomer, axis not shown) [Compound 761]	–
< 0.1 µM	< 0.1 µM	< 0.1 µM	< 0.1 µM	< 0.1 µM	< 0.1 µM	–	–	–	–	–	–	CCN(c1nc(OC[C@@]23CCCN2C[C@H](F)C3)nc2c(F)c(-c3ccc(F)c4sc(N)c(C#N)c34)c(C(F)(F)F)cc12)[C@H]1CCN(C(=O)[C@H]2CCCO2)C1 (atropisomer, axis not shown) [Compound 735]	–
< 0.1 µM	< 0.1 µM	0.1 to 1 µM	< 0.1 µM	< 0.1 µM	0.1 to 1 µM	–	–	–	–	–	–	CCN(c1nc(OC[C@@]23CCCN2C[C@H](F)C3)nc2c(F)c(-c3ccc(F)c4sc(N)c(C#N)c34)c(C(F)(F)F)cc12)[C@H]1CCN(C(=O)C2CC(OC)C2)C1 (stereo partly drawn) [Compound 777]	–
< 0.1 µM	< 0.1 µM	< 0.1 µM	< 0.1 µM	< 0.1 µM	< 0.1 µM	–	–	–	–	–	–	CCN(c1nc(OC[C@@]23CCCN2C[C@H](F)C3)nc2c(F)c(-c3ccc(F)c4sc(N)c(C#N)c34)c(C(F)(F)F)cc12)[C@H]1CCN(C(=O)[C@@H]2C[C@H]2C)C1 (atropisomer, axis not shown) [Compound 690]	–
< 0.1 µM	0.1 to 1 µM	0.1 to 1 µM	< 0.1 µM	< 0.1 µM	0.1 to 1 µM	–	–	–	–	–	–	N#Cc1c(N)sc2c(F)ccc(-c3c(C(F)(F)F)cc4c(N(C5CC5)[C@H]5CCN(C(=O)N6CC(F)C6)C5)nc(OC[C@@]56CCCN5C[C@H](F)C6)nc4c3F)c12 (atropisomer, axis not shown) [Compound 813]	–
< 0.1 µM	< 0.1 µM	< 0.1 µM	< 0.1 µM	< 0.1 µM	< 0.1 µM	–	–	–	–	–	–	CCN(c1nc(OC[C@@]23CCCN2C[C@H](F)C3)nc2c(F)c(-c3ccc(F)c4sc(N)c(C#N)c34)c(C(F)(F)F)cc12)[C@H]1CCN(C(=O)N2CC(F)C2)[C@@H]1C (atropisomer, axis not shown) [Compound 780]	–
